Results as given in patent publication US20240358668A1, “METHODS AND CO[…] AM[…] CARD[…] USING (R)-2-AMINO-3-PH[…]” (AXSOME THERAPEUTICS, INC., priority 2021, published 2024).

System: participants with narcolepsy or OSA
Assay: 1-year OLE study: clinical laboratory assessments (total cholesterol, triglycerides, glucose), OLE baseline to week 40
Format: in vivo, human
Description: A 1-year open-label extension (OLE) study was performed with 374 participants to examined whether clinically significant weight loss (≥5%) in this population had favorable effects on biomarkers of cardiovascular risk compared to no such weight loss. The study measured changes in weight and BP (parent study baseline to OLE week 40) and clinical laboratory assessments (OLE baseline to week 40) in participants with narcolepsy (n=124) or OSA (n=250) who received solriamfetol at doses of 75, 150, or 300 mg/d.
We evaluated changes in weight and BP (parent study baseline to OLE week 40) and clinical laboratory assessments (OLE baseline to week 40) in participants with narcolepsy (n=124) or OSA (n=250) from the OLE study.

[1] = Weight loss <5% at Week 40, 75 mg/d
[2] = Weight loss <5% at Week 40, 150 mg/d
[3] = Weight loss <5% at Week 40, 300 mg/d
[4] = Weight loss <5% at Week 40, all doses
[5] = Weight loss ≥5% at Week 40, 75 mg/d
[6] = Weight loss ≥5% at Week 40, 150 mg/d
[7] = Weight loss ≥5% at Week 40, 300 mg/d
[8] = Weight loss ≥5% at Week 40, all doses

## NC(=O)OC[C@H](N)Cc1ccccc1 [Solriamfetol, (R)-2-amino-3-phenylpropyl carbamate]
[1]
  Glucose Change - Wk 40, Mean (SD): −0.1 (3.0) mmol/L
  Glucose Change - Wk 40, Median: 0.2 mmol/L
  Glucose category High, Week 40: 16(76.2) n (%)
  Glucose category Low, Week 40: 0 n (%)
  Glucose category Normal, Week 40: 5(23.8) n (%)
  TC Change - Wk 40, Mean (SD): −0.1 (0.7) mmol/L
  TC Change - Wk 40, Median: 0.2 mmol/L
  TG Change - Wk 40, Mean (SD): 0.2 (0.9) mmol/L
  TG Change - Wk 40, Median: -0.1 mmol/L
  Total cholesterol category High, Week 40: 8(38.1) n (%)
  Total cholesterol category Low, Week 40: 0 n (%)
  Total cholesterol category Normal, Week 40: 13(61.9) n (%)
  Triglycerides category High, Week 40: 11(52.4) n (%)
  Triglycerides category Low, Week 40: 0 n (%)
  Triglycerides category Normal, Week 40: 10(47.6) n (%)
[2]
  Glucose Change - Wk 40, Mean (SD): −0.1 (1.1) mmol/L
  Glucose Change - Wk 40, Median: -0.1 mmol/L
  Glucose category High, Week 40: 47(46.1) n (%)
  Glucose category Low, Week 40: 0 n (%)
  Glucose category Normal, Week 40: 55(53.9) n (%)
  TC Change - Wk 40, Mean (SD): 0.1 (0.7) mmol/L
  TC Change - Wk 40, Median: 0.1 mmol/L
  TG Change - Wk 40, Mean (SD): −0.1 (1.0) mmol/L
  TG Change - Wk 40, Median: -0.0 mmol/L
  Total cholesterol category High, Week 40: 46(44.2) n (%)
  Total cholesterol category Low, Week 40: 0 n (%)
  Total cholesterol category Normal, Week 40: 58(55.8) n (%)
  Triglycerides category High, Week 40: 39(37.5) n (%)
  Triglycerides category Low, Week 40: 0 n (%)
  Triglycerides category Normal, Week 40: 65(62.5) n (%)
[3]
  Glucose Change - Wk 40, Mean (SD): −0.1 (1.9) mmol/L
  Glucose Change - Wk 40, Median: 0.0 mmol/L
  Glucose category High, Week 40: 69(48.9) n (%)
  Glucose category Low, Week 40: 0 n (%)
  Glucose category Normal, Week 40: 72(51.1) n (%)
  TC Change - Wk 40, Mean (SD): 0.1 (0.6) mmol/L
  TC Change - Wk 40, Median: 0.100 mmol/L
  TG Change - Wk 40, Mean (SD): 0.0 (0.7) mmol/L
  TG Change - Wk 40, Median: -0.1 mmol/L
  Total cholesterol category High, Week 40: 46(31.9) n (%)
  Total cholesterol category Low, Week 40: 0 n (%)
  Total cholesterol category Normal, Week 40: 98(68.1) n (%)
  Triglycerides category High, Week 40: 50(34.7) n (%)
  Triglycerides category Low, Week 40: 0 n (%)
  Triglycerides category Normal, Week 40: 94(65.3) n (%)
[4]
  Glucose Change - Wk 40, Mean (SD): −0.1 (1.8) mmol/L
  Glucose Change - Wk 40, Median: -0.0 mmol/L
  Glucose category High, Week 40: 132(50.0) n (%)
  Glucose category Low, Week 40: 0 n (%)
  Glucose category Normal, Week 40: 132(50.0) n (%)
  TC Change - Wk 40, Mean (SD): 0.1 (0.6) mmol/L
  TC Change - Wk 40, Median: 0.100 mmol/L
  TG Change - Wk 40, Mean (SD): −0.0 (0.9) mmol/L
  TG Change - Wk 40, Median: -0.0 mmol/L
  Total cholesterol category High, Week 40: 100(37.2) n (%)
  Total cholesterol category Low, Week 40: 0 n (%)
  Total cholesterol category Normal, Week 40: 169(62.8) n (%)
  Triglycerides category High, Week 40: 100(37.2) n (%)
  Triglycerides category Low, Week 40: 0 n (%)
  Triglycerides category Normal, Week 40: 169(62.8) n (%)
[5]
  Glucose Change - Wk 40, Mean (SD): -0.5 mmol/L
  Glucose Change - Wk 40, Median: -0.5 mmol/L
  Glucose category High, Week 40: 1(100) n (%)
  Glucose category Low, Week 40: 0 n (%)
  Glucose category Normal, Week 40: 0 n (%)
  TC Change - Wk 40, Mean (SD): 1.1 mmol/L
  TC Change - Wk 40, Median: 1.1 mmol/L
  TG Change - Wk 40, Mean (SD): 0.3 mmol/L
  TG Change - Wk 40, Median: 0.3 mmol/L
  Total cholesterol category High, Week 40: 0 n (%)
  Total cholesterol category Low, Week 40: 0 n (%)
  Total cholesterol category Normal, Week 40: 1(100) n (%)
  Triglycerides category High, Week 40: 0 n (%)
  Triglycerides category Low, Week 40: 0 n (%)
  Triglycerides category Normal, Week 40: 1(100) n (%)
[6]
  Glucose Change - Wk 40, Mean (SD): −0.2 (0.8) mmol/L
  Glucose Change - Wk 40, Median: -0.2 mmol/L
  Glucose category High, Week 40: 7(31.8) n (%)
  Glucose category Low, Week 40: 0 n (%)
  Glucose category Normal, Week 40: 15(68.2) n (%)
  TC Change - Wk 40, Mean (SD): 0.2 (0.5) mmol/L
  TC Change - Wk 40, Median: 0.2 mmol/L
  TG Change - Wk 40, Mean (SD): −0.1 (0.4) mmol/L
  TG Change - Wk 40, Median: -0.2 mmol/L
  Total cholesterol category High, Week 40: 4(18.2) n (%)
  Total cholesterol category Low, Week 40: 0 n (%)
  Total cholesterol category Normal, Week 40: 18(81.8) n (%)
  Triglycerides category High, Week 40: 6(27.3) n (%)
  Triglycerides category Low, Week 40: 0 n (%)
  Triglycerides category Normal, Week 40: 16(72.7) n (%)
[7]
  Glucose Change - Wk 40, Mean (SD): −0.2 (1.5) mmol/L
  Glucose Change - Wk 40, Median: -0.1 mmol/L
  Glucose category High, Week 40: 19(26.0) n (%)
  Glucose category Low, Week 40: 0 n (%)
  Glucose category Normal, Week 40: 54(74.0) n (%)
  TC Change - Wk 40, Mean (SD): 0.2 (0.6) mmol/L
  TC Change - Wk 40, Median: 0.2 mmol/L
  TG Change - Wk 40, Mean (SD): −0.3 (1.0) mmol/L
  TG Change - Wk 40, Median: -0.2 mmol/L
  Total cholesterol category High, Week 40: 18(24.7) n (%)
  Total cholesterol category Low, Week 40: 0 n (%)
  Total cholesterol category Normal, Week 40: 55(75.3) n (%)
  Triglycerides category High, Week 40: 15(20.5) n (%)
  Triglycerides category Low, Week 40: 0 n (%)
  Triglycerides category Normal, Week 40: 58(79.5) n (%)
[8]
  Glucose Change - Wk 40, Mean (SD): −0.2 (1.4) mmol/L
  Glucose Change - Wk 40, Median: -0.1 mmol/L
  Glucose category High, Week 40: 27(28.1) n (%)
  Glucose category Low, Week 40: 0 n (%)
  Glucose category Normal, Week 40: 69(71.9) n (%)
  TC Change - Wk 40, Mean (SD): 0.2 (0.6) mmol/L
  TC Change - Wk 40, Median: 0.2 mmol/L
  TG Change - Wk 40, Mean (SD): −0.2 (0.9) mmol/L
  TG Change - Wk 40, Median: -0.2 mmol/L
  Total cholesterol category High, Week 40: 22(22.9) n (%)
  Total cholesterol category Low, Week 40: 0 n (%)
  Total cholesterol category Normal, Week 40: 74(77.1) n (%)
  Triglycerides category High, Week 40: 21(21.9) n (%)
  Triglycerides category Low, Week 40: 0 n (%)
  Triglycerides category Normal, Week 40: 75(78.1) n (%)
Participants with weight loss, week 40 (baseline 22.3%)
  percentage of participants with high total cholesterol: 22.9%
Participants with weight loss, week 40 (baseline 26.6%)
  percentage of participants with high triglycerides: 21.9%
Participants with weight loss, week 40 (baseline 36.6%)
  percentage of participants with high serum glucose: 28.1%
Participants without weight loss, week 40 (baseline 32.7%)
  percentage of participants with high total cholesterol: 37.2%
Participants without weight loss, week 40 (baseline 37.1%)
  percentage of participants with high triglycerides: 37.2%
Participants without weight loss, week 40 (baseline 43.3%)
  percentage of participants with high serum glucose: 50%
